Activity calls are given as the source filed them. The rule behind the calls is not given here.
Key:
[1] = Cytotoxicity against mouse BA/F3 cells; assay type: functional; conditions: BaF3, read-out: LD50 (the source's name)
[2] = Cytotoxicity against mouse BA/F3 cells overexpressing BCR-Abl T315I mutant; assay type: functional; conditions: BaF3, read-out: LD50 (the source's name)
[3] = biological target: Tyrosine-protein kinase ABL1 (Mus musculus) (UniProt P00520); test: Induction of translocation of cAbl in to mitochondria of mouse BA/F3 cells; conditions: BaF3
Tyrosine-protein kinase ABL1 (Mus musculus), sequence (P00520 whole entry, the tested form may be a part): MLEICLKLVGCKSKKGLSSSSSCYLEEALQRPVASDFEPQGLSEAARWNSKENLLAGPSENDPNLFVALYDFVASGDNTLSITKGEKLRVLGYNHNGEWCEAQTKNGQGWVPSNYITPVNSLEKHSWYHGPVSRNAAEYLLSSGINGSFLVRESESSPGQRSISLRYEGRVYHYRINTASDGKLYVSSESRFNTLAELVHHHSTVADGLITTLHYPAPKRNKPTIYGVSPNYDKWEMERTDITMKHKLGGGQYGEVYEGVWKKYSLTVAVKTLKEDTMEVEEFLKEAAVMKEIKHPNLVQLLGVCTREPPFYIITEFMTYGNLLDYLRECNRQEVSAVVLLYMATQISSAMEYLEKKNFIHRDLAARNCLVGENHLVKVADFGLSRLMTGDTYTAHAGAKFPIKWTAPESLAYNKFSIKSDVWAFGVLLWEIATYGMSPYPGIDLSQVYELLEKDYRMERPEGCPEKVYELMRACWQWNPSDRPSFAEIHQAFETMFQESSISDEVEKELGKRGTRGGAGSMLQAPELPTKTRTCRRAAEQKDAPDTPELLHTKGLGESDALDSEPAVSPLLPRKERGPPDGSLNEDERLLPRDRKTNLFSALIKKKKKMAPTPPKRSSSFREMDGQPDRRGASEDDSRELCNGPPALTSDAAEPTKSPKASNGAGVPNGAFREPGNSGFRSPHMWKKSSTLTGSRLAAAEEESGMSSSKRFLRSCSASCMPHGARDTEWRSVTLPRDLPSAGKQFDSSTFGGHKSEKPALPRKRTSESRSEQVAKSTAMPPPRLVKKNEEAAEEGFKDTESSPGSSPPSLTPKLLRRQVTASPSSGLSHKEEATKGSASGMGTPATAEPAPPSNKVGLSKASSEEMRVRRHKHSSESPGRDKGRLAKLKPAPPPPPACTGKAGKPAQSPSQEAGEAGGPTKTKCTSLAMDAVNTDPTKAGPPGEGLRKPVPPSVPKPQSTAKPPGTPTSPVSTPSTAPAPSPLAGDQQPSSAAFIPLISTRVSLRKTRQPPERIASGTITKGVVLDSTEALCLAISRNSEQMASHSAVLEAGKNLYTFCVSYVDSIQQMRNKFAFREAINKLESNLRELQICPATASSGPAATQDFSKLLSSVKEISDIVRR

[4] = biological target: Tyrosine-protein kinase ABL1 (Mus musculus) (UniProt P00520); test: Induction of nuclear translocation of cAbl of mouse BA/F3 cells; assay type: cell-based; conditions: BaF3
[5] = biological target: Bcr/Abl fusion protein (Homo sapiens) (UniProt P00519+P11274); test: Binding affinity to Bcr-Abl expressed in mouse BA/F3 cells at 5 uM; assay type: cell-based; conditions: BaF3
Bcr/Abl fusion protein (Homo sapiens), sequence (P00519 whole entry, looked up, the tested form may be a part): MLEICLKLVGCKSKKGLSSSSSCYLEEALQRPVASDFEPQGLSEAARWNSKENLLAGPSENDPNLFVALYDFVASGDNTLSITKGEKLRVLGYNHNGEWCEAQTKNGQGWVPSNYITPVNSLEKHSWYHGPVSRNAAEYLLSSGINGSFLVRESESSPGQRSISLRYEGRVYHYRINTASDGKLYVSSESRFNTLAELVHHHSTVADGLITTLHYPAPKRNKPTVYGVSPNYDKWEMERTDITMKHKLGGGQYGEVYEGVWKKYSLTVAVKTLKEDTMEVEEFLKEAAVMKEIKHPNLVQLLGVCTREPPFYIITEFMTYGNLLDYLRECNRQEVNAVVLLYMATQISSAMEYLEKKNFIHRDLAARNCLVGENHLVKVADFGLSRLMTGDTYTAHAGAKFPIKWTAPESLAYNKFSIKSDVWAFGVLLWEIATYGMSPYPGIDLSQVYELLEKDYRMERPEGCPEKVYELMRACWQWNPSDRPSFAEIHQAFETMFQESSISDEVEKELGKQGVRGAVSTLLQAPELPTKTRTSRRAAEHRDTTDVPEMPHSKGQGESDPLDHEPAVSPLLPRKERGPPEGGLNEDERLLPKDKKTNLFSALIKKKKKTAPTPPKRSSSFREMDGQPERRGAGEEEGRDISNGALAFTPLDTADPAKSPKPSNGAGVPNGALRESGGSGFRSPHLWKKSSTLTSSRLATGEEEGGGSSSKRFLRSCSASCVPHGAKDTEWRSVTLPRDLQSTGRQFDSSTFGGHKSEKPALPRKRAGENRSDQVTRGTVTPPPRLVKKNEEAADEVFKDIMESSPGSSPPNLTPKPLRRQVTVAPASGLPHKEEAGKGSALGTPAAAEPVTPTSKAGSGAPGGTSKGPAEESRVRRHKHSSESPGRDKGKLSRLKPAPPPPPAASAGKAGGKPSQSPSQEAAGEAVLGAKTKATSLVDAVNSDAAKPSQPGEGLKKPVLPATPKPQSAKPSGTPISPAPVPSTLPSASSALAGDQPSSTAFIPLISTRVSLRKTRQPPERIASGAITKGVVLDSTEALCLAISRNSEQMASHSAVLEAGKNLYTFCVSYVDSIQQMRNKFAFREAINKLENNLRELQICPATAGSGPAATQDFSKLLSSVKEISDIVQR
Bcr/Abl fusion protein (Homo sapiens), sequence (P11274 whole entry, looked up, the tested form may be a part): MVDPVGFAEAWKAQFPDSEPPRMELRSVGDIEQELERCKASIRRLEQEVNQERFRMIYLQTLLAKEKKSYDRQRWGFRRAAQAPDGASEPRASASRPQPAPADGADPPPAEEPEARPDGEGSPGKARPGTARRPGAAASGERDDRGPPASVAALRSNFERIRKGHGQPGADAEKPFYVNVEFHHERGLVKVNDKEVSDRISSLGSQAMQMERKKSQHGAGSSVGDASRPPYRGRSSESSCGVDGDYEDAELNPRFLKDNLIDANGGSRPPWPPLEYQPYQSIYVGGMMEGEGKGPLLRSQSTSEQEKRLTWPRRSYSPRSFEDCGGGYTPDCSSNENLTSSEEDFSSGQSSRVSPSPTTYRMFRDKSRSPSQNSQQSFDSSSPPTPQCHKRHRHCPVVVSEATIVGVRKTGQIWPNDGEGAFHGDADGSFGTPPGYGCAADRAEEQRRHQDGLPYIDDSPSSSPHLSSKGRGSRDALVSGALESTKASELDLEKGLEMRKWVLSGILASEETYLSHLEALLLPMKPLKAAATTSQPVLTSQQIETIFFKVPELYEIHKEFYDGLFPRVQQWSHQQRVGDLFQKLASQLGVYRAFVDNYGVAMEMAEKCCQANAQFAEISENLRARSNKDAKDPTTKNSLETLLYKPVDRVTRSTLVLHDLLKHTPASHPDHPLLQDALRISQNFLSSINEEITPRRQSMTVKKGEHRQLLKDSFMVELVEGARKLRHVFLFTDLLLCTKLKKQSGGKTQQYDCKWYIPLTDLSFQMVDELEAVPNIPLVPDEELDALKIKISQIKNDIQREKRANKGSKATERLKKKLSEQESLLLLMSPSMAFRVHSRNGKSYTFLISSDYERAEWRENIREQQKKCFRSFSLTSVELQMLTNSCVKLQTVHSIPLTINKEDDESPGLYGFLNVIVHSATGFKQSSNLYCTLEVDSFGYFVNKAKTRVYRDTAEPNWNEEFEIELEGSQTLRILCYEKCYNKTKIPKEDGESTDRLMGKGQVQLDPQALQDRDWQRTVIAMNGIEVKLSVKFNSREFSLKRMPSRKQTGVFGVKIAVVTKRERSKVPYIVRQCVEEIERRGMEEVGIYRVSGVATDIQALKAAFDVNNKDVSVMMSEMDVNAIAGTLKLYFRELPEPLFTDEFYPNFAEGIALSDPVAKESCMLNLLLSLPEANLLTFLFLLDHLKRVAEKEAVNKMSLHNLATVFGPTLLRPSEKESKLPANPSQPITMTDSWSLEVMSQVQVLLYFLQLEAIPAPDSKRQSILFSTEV

[6] = biological target: Tyrosine-protein kinase ABL1 (Mus musculus) (UniProt P00520); test: Induction of translocation of cAbl in to mitochondria of mouse BA/F3 cells assessed as caspase 8 cleavage; conditions: BaF3
[7] = biological target: Tyrosine-protein kinase ABL1 (Mus musculus) (UniProt P00520); test: Induction of translocation of cAbl in to mitochondria of mouse BA/F3 cells assessed as caspase9 cleavage; conditions: BaF3

For `Cc1c(NC(=O)c2c(C(=O)O)cccc2C(=O)O)c(=O)n(-c2ccccc2)n1C`, which CC50 [1] is on record?
Its CC50 is 1040 nM.

And the CC50 [2]?
The CC50 was 1470 nM.

What about the Activity [3] of the same compound?
The Activity was “Active”.

And the Activity [4]?
The Activity was “Active”.

And the Activity [5]?
Its Activity is “Active”.

And the Activity [6]?
The Activity was “Active”.

What about the Activity [7] of the same compound?
The Activity was “Active”.
